This is an account of results in US4107297A, “Antibiotic compound” (The Kitasato Institute, priority 1976, dated 1978).

Values after ≈ are worked out from the molar mass of the structure shown. Values joined by “and” are separate entries in the source; they are usually repeats but may differ in a detail not shown here. Equal values may be shown once. Where a name gives a salt, the structure may show the parent alone.

The nature of series [1]: acute toxicity in mice (Behrens-Karber method). Conditions: mouse, in vivo, ip.
For another series, the system named is Xanthomonas oryzae. Description: microbe, parasite or virus in culture. The format is cell-based. Conditions: pH 7.
Series [2] in a line: solubility in various solvent. The series is classed as physicochemical.
Another series has as its system edema and ulcer. The series can be described thus: activity on edema and ulcer in rats. The series is classed as in vivo. Here is the method: The present antibiotic substance is a basic nitrogen-containing compound, viz. a so-called alkaloid-like substance. […] The minimum effective concentration is established to be 1.0 mg/kg.
Another series has as its system Piricularia oryzae. Description: microbe, parasite or virus in culture. The series is classed as cell-based. Conditions: pH 6.8.
For another series, the system named is Microsporum gipseum. Description: antifungal activity, MIC by agar dilution method. The series is classed as cell-based. As to conditions: medium P, pH 6.8. An excerpt: (§1) Table 1 indicates the antibacterial and antifungal activity of AM-2282 in terms of the minimum inhibitory concentration (mcg/ml) determined by agar dilution method.
(§2) P: Potato extract containing glucose 1.0 % W/V and agar 1.2 % W/V, pH 6.8

A further series concerns Sclerotinia cinerea. Description: antifungal activity, MIC by agar dilution method. The series is classed as cell-based. As to conditions: medium P, pH 6.8.
From the text: as §1, §2
(In general: In agar dilution the substance is mixed into plates at graded concentrations.)

Series [3] relates to Trichophyton mentagrophytes. The series can be described thus: antifungal activity, MIC by agar dilution method. The series is classed as cell-based. Conditions: medium P, pH 6.8.
From the text: as §1, §2

For the next series, the system named is Candida albicans. Description: antifungal activity, MIC by agar dilution method. The format is cell-based. As to conditions: medium P, pH 6.8.
From the text: as §1, §2

A further series deals with Cryptococcus neoformans. Description: antifungal activity, MIC by agar dilution method. The series is classed as cell-based. As to conditions: medium P, pH 6.8.
From the text: as §1, §2

The test system of another series is Candida pseudotropicalis. The series can be described thus: antifungal activity, MIC by agar dilution method. The format is cell-based. As to conditions: Kluyveromyces marxianus, medium P, pH 6.8.
From the text: as §1, §2

A further series deals with Trichophyton rubrum. The series can be described thus: antifungal activity, MIC by agar dilution method. The format is cell-based. Conditions: medium P, pH 6.8.
From the text: as §1, §2

The subject of another series is Aspergillus brevipus. The series can be described thus: antifungal activity, MIC by agar dilution method. The series is classed as cell-based. As to conditions: medium P, pH 6.8.
From the text: as §1, §2

In another series the test system is Saccharomyces sake. Description: antifungal activity, MIC by agar dilution method. The format is cell-based. Conditions: medium P, pH 6.8.
From the text: as §1, §2

The test system of another series is Aspergillus niger. The series can be described thus: antifungal activity, MIC by agar dilution method. The series is classed as cell-based. As to conditions: medium P, pH 6.8.
From the text: as §1, §2

The subject of another series is Aspergillus fumigatus. Description: antifungal activity, MIC by agar dilution method. The series is classed as cell-based. As to conditions: medium P, pH 6.8.
From the text: as §1, §2

Series [4] concerns Staphylococcus aureus FDA 209P. Description: antibacterial activity, MIC by agar dilution method. The format is cell-based. Conditions: FDA209P, medium N, pH 7.0.
From the text: as §1
(§3) *N: Peptone 0.5 % W/V, meat extract 0.5 % W/V, agar 1.2 % W/V, pH 7.0.

Series [5] relates to Mycobacterium Smegmatis ATCC 607. Described as above. The format is cell-based. Conditions: Mycolicibacterium smegmatis, ATCC607, medium N, pH 7.0.
From the text: as §1, §3

The subject of series [6] is Bacillus substilis PCI 219. The description is as above. The series is classed as cell-based. Conditions: PCI219, medium N, pH 7.0.
From the text: as §1, §3

Series [7] concerns Proteus vulgaris IFO 3167. The series is described as above. The series is classed as cell-based. Conditions: IFO3167, medium N, pH 7.0.
From the text: as §1, §3

Another series has as its system Escherichia coli NIJH. The series is described as above. The series is classed as cell-based. As to conditions: medium N, pH 7.0.
From the text: as §1, §3

A further series deals with Sarcina lutea PCI 1001. Described as above. The series is classed as cell-based. Conditions: Micrococcus luteus, PCI1001, medium N, pH 7.0.
From the text: as §1, §3

Series [8] relates to Pseudomonas aeruginosa P-3. Described as above. As to conditions: P3, medium N, pH 7.0. The series is classed as cell-based.
From the text: as §1, §3

Series [9] deals with arteriolar pressure (systolic) in the tail. Description: test for hypertensive effect in rats disposed to spontaneous hypertension.

Regarding `CN[C@@H]1CC2O[C@@](C)([C@@H]1OC)n1c3ccccc3c3c4c(c5c6ccccc6n2c5c31)C(=O)NC4` [AM-2282], the LD50 (as a rule, the dose expected to kill half of the subjects tested) in [1] is 6.6 mg/kg. Besides, the MIC was 200 µg/mL (≈ 429 µM) in the series on Xanthomonas oryzae; 0.78 µg/mL (≈ 1.67 µM) in the series with Piricularia oryzae; above 100 µg/mL in the series with Microsporum gipseum; 0.78 µg/mL (≈ 1.67 µM) against Sclerotinia cinerea; 25 µg/mL (≈ 53.6 µM) in [3]; 6.25 µg/mL (≈ 13.4 µM) against Candida albicans. Moreover, the MIC in the series on Cryptococcus neoformans was found to be 50 µg/mL (≈ 107 µM); in the series with Candida pseudotropicalis, 3.12 µg/mL (≈ 6.69 µM); in the series on Trichophyton rubrum, 6.25 µg/mL (≈ 13.4 µM); against Aspergillus brevipus it was 3.12 µg/mL (≈ 6.69 µM); in the series on Saccharomyces sake it was 3.12 µg/mL (≈ 6.69 µM); in the series with Aspergillus niger, 25 µg/mL (≈ 53.6 µM). The MIC with Aspergillus fumigatus was 12.5 µg/mL (≈ 26.8 µM); in series [4], above 200 µg/mL; in series [5] it was 50 µg/mL (≈ 107 µM); in series [6], above 200 µg/mL; in series [7], above 200 µg/mL; against Escherichia coli NIJH, above 200 µg/mL. Moreover, the MIC against Sarcina lutea PCI 1001 was 25 µg/mL (≈ 53.6 µM); in series [8] it was above 200 µg/mL. The Solubility entry is given as “Sparingly soluble” in series [2] (in chloroform); “Soluble” in [2] (in dimethyl formamide); “Soluble” in series [2] (in dimethyl sulfoxide); “Sparingly soluble” in [2] (in ethyl acetate); “soluble in fat” in [2] (in fat); “Sparingly soluble” in series [2] (in methanol). The Solubility entry in series [2] (in n-butyl acetate) is reported as “Sparingly soluble”; in [2] (in n-hexane), “Insoluble”; in series [2] (in petroleum ether), “Insoluble”; in [2] (in water) it was “Insoluble”. Moreover, in the series with edema and ulcer (Rattus norvegicus, read-out: minimum effective concentration (activity on edema and ulcer)), the minimal effective dose was 1 mg/kg. In addition, the “activity on edema and ulcer” value with edema and ulcer (rats) is “exhibit an activity on edema and ulcer”.
Take `CN[C@@H]1CC2O[C@@](C)([C@@H]1OC)n1c3ccccc3c3c4c(c5c6ccccc6n2c5c31)C(=O)NC4` [Hydrochloride of AM-2282]: the “Degree of hypertension (%)” value is -2% and 2% in series [9] (0.16 mg/kg, oral, after 1 hr); 1% and 2% in [9] (0.16 mg/kg, oral, after 3 hrs); 1% and 2% in series [9] (0.16 mg/kg, oral, after 5 hrs); 23% and 13% in series [9] (0.3 mg/kg, oral, after 3 hrs); 11% and 12% in series [9] (0.3 mg/kg, oral, after 5 hrs); 13% and 17% in [9] (0.63 mg/kg, oral, after 1 hr). For the same compound, the “Degree of hypertension (%)” value in [9] (0.63 mg/kg, oral, after 3 hrs) is 13% and 24%; in [9] (0.63 mg/kg, oral, after 5 hrs), 25% and 24%; in [9] (1.25 mg/kg, oral, after 1 hr), 15% and 18%; in [9] (1.25 mg/kg, oral, after 3 hrs) it was 23% and 25%; in series [9] (1.25 mg/kg, oral, after 5 hrs), 31% and 39%. In addition, the minimal effective dose in [9] (Rattus norvegicus, po, read-out: minimum dose rate at which the hypertensive effect appears) is 0.3 mg/kg.
As for `CC(N)(Cc1ccc(O)c(O)c1)C(=O)O` (stereo not drawn) [α-methyl DOPA, reference compound], the “Degree of hypertension (%)” value in series [9] (100 mg/kg, after 1 hr) came to 7%; in series [9] (100 mg/kg, after 3 hrs), 13%; in [9] (100 mg/kg, after 5 hrs), 13%.
